Laboratory results as given in paper PMC12951562, “SH2scan: Mapping SH2 Domain-Ligand Binding Selectivity for Inhibitors and Degraders” (Journal of Medicinal Chemistry, 2026).
“And” between values parts separate entries of the source, which are not always exact repeats. Equal values may be shown once. Read-outs that look alike come from different tables or passages of the source. Non-standard residues stand in square brackets, D forms with d. Residues, ends and D or L forms follow the SMILES beside them. *: point of attachment. pY = N[C@@H](Cc1ccc(OP(=O)(O)O)cc1)C(=O)O; Caffeoyl = O=C(/C=C/c1ccc(O)c(O)c1)*

Tests used:
Assay in all cases: biochemical
Format in all cases: binding
[1] = biological target: T1, SHC4 (Homo sapiens, UniProt Q6S5L8); conditions: for remaining activity at 10 µM: read-out: percent of DMSO vehicle control
T1 construct: made in house; host or cells: HEK293 (transient transfection), unpurified extract
T1 sequence (Q6S5L8 1-630): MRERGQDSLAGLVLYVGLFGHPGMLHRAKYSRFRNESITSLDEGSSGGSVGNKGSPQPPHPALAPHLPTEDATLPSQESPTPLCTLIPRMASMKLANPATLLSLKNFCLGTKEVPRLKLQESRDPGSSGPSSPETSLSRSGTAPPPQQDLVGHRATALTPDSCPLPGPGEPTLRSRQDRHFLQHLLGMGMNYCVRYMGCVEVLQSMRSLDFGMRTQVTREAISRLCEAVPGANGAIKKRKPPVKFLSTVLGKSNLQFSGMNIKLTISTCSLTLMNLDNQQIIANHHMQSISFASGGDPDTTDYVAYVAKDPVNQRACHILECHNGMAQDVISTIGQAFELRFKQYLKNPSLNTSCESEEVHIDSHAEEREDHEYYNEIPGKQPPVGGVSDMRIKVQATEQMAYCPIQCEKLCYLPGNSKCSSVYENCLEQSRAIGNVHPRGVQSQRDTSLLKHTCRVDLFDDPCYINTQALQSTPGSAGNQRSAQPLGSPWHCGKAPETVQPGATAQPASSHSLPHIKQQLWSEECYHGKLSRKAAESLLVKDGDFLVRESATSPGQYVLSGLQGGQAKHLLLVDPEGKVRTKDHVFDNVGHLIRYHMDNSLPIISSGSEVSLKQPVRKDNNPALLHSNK

[2] = biological target: T2, SLAP2 (Homo sapiens, UniProt Q9H6Q3); conditions: for remaining activity at 10 µM: read-out: percent of DMSO vehicle control
T2 construct: made in house; host or cells: HEK293 (transient transfection), unpurified extract
T2 sequence (Q9H6Q3 1-261): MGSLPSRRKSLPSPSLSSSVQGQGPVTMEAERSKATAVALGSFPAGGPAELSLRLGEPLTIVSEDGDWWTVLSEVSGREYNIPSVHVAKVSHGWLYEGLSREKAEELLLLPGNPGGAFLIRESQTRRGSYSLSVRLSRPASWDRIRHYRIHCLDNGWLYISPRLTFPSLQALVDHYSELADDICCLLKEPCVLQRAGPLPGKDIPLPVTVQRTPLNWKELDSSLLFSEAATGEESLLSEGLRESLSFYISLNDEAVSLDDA

[3] = biological target: T3, BLNK (Homo sapiens, UniProt Q8WV28); conditions: for remaining activity at 10 µM: read-out: percent of DMSO vehicle control
T3 construct: the DNA-tagged SH2 domain concentrations used in this study were <0.1 nM; made in house; host or cells: HEK293 (transient transfection; unpurified extract)
T3 sequence (Q8WV28 346-453 limits assumed): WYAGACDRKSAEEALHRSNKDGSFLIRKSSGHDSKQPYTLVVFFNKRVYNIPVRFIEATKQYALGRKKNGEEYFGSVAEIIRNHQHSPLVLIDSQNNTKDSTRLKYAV

[4] = biological target: T4, SHF (Homo sapiens, UniProt Q7M4L6); conditions: for remaining activity at 10 µM: read-out: percent of DMSO vehicle control
T4 construct: made in house; host or cells: HEK293 (transient transfection), unpurified extract
T4 sequence (Q7M4L6 1-423): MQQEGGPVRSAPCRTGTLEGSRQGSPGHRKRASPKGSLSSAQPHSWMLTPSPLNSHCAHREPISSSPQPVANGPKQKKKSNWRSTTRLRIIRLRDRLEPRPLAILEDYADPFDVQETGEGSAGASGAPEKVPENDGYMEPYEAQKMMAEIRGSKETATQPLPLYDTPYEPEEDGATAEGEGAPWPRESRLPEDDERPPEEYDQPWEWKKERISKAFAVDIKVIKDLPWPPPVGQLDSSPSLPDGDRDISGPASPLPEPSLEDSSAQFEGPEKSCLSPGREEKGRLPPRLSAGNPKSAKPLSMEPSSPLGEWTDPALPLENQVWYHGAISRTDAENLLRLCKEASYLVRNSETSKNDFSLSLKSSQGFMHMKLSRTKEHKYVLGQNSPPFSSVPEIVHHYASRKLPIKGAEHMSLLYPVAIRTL

[5] = biological target: T5, BRK (Homo sapiens, UniProt Q13882); conditions: for remaining activity at 10 µM: read-out: percent of DMSO vehicle control; for KD: dose-response
T5 construct: the DNA-tagged SH2 domain concentrations used in this study were <0.1 nM; made in house; host or cells: HEK293 (transient transfection; unpurified extract)
T5 sequence (Q13882 78-170 limits assumed): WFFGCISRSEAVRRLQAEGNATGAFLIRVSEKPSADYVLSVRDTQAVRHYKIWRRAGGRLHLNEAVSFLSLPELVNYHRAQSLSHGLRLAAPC

[6] = biological target: T6, VAV2 (Homo sapiens, UniProt P52735); conditions: for remaining activity at 10 µM: read-out: percent of DMSO vehicle control
T6 construct: made in house; host or cells: HEK293 (transient transfection), unpurified extract
T6 sequence (P52735 1-878): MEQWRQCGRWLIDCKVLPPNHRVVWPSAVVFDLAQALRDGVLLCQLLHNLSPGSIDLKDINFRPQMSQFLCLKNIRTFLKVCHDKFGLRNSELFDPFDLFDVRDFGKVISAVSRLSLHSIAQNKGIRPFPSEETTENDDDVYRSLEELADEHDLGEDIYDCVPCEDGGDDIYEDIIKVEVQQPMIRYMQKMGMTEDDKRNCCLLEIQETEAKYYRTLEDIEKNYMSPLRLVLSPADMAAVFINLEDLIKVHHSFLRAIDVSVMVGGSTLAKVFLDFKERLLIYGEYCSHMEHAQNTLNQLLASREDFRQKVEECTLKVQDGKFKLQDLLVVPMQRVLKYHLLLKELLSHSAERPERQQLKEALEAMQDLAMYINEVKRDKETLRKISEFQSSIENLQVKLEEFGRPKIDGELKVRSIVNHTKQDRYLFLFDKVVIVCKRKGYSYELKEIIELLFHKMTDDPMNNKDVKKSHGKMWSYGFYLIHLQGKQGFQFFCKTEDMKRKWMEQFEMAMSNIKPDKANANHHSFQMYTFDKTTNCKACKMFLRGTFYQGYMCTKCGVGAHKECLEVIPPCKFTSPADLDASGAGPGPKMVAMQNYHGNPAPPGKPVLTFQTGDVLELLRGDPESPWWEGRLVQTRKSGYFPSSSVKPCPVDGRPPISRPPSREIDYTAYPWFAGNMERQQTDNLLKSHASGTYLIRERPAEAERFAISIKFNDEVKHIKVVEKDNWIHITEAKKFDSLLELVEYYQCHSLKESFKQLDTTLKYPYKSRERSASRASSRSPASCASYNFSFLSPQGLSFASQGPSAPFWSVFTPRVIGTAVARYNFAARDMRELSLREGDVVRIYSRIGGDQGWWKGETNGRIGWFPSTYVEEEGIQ

[7] = biological target: T7, BLK (Homo sapiens, UniProt P51451); conditions: for remaining activity at 10 µM: read-out: percent of DMSO vehicle control
T7 construct: the DNA-tagged SH2 domain concentrations used in this study were <0.1 nM; made in house; host or cells: HEK293 (transient transfection; unpurified extract)
T7 sequence (P51451 124-220 limits assumed): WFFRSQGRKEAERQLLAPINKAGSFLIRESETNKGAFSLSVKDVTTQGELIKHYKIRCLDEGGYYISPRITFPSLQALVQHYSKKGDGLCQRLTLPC

[8] = biological target: T8, PIK3R3(SH2dom.C-term.) (Homo sapiens, UniProt Q92569); conditions: for remaining activity at 10 µM: read-out: percent of DMSO vehicle control
T8 construct: SH2dom.C-term. denotes SH2 domain closest to C-terminus of protein; made in house; host or cells: HEK293 (transient transfection, unpurified extract)

Row | SMILES | remaining activity at 10 µM ([1]; primary screen, 10 μM) [%] | remaining activity at 10 µM ([2]; primary screen, 10 μM) [%] | remaining activity at 10 µM ([3]; primary screen, 10 μM) [%] | remaining activity at 10 µM ([4]; primary screen, 10 μM) [%] | remaining activity at 10 µM ([5]; primary screen, 10 μM) [%] | remaining activity at 10 µM ([6]; primary screen, 10 μM) [%] | remaining activity at 10 µM ([7]; primary screen, 10 μM) [%] | Kd ([8]; dose-response, read-out: KD) [nM] | remaining activity at 10 µM ([8]; primary screen, 10 μM) [%] | remaining activity at 10 µM [1] [%] | remaining activity at 10 µM [2] [%] | remaining activity at 10 µM [3] [%] | remaining activity at 10 µM [4] [%] | remaining activity at 10 µM [5] [%] | remaining activity at 10 µM [6] [%] | remaining activity at 10 µM [7] [%] | Kd [8] [nM] | remaining activity at 10 µM [8] [%] | KD [5] | also measured
1 | O=C(CCl)Nc1cccc(CNC(=O)[C@H](Cc2ccc(OP(=O)(O)O)cc2)NC(=O)Cc2ccc(F)cc2)c1 [MN551] | 93 ± 4.4 | 81.6 ± 2.1 | 101 | 103 | 4.7 ± 0.7 | 77.8 ± 4.8 | 116 | 4400 | 27.3 ± 3.8 | – | – | – | – | – | – | – | – | – | – | –
2 | CC[C@H](C)[C@H](NC(=O)[C@H](CCC(=O)O)NC(=O)[C@H](CCC(=O)O)NC(=O)[C@H](Cc1ccc(OP(=O)(O)O)cc1)NC(=O)/C=C/c1ccc(O)c(O)c1)C(=O)N[C@@H](CCC(=O)O)C(=O)O [Caffeic acid-pYEEIE] (Caffeoyl-[pY]EEIE-OH) | – | – | – | – | – | – | – | – | – | 0 | 5.3 ± 3.8 | 3.2 ± 0.6 | 50.6 ± 4.3 | 0 | 0.5 ± 0.1 | 0.1 | 230 ± 180 | 0.8 ± 0.1 | – | Kd [1]: 39 ± 6.1 nM; Kd ([2]; KD, dose-response): 310 nM and 314 nM; Kd [3]: 240 ± 24 nM; Kd [4]: 27200 ± 8880 nM; Kd [5]: 24 ± 3.9 nM; Kd [6]: 58 ± 40 nM; Kd [7]: 1.5 ± 0.69 nM
3 | C/C(=C\C(=O)N[C@H](C(=O)N1CCC[C@H]1C(=O)N(c1ccccc1)c1ccc(I)cc1)C(C)(C)C)c1ccc(OP(=O)(O)O)cc1 [STAT6-IN-1] | 77.1 ± 7.5 | 55.8 ± 2.8 | 116 ± 19.9 | 43.6 ± 7.2 | 3 ± 0.4 | 79.9 ± 1.6 | 49.1 ± 3.4 | 780 ± 42 | 1 ± 0.1 | – | – | – | – | – | – | – | – | – | No Hit | –
4 | O=C(COc1ccc2cc(C(=O)Nc3ccccc3)ccc2c1)NCc1ccc(OP(=O)(O)O)c(OP(=O)(O)O)c1 [Stafib-1] | 103 | 90.4 ± 6.1 | 158 | 79.7 ± 9.4 | 5.4 ± 60.2 | 95.8 ± 29.1 | 91.8 ± 35.5 | – | 86.5 | – | – | – | – | – | – | – | – | – | No Hit | –
5 | CC[C@H](C)[C@H](NC(=O)[C@H](CCC(=O)O)NC(=O)[C@H](CCC(=O)O)NC(=O)[C@H](Cc1ccc(OP(=O)(O)O)cc1)NC(C)=O)C(=O)N[C@@H](CCC(=O)O)C(N)=O [Ac-pYEEIE-NH2] (Ac-[pY]EEIE-NH2) | – | – | – | – | – | – | – | – | – | – | – | – | – | – | – | – | 14900 | – | – | percent of DMSO vehicle control ([1]; primary screen, 10 μM): 119.5%; percent of DMSO vehicle control ([2]; primary screen, 10 μM): 202.8%; percent of DMSO vehicle control ([3]; primary screen, 10 μM): 118.9%; percent of DMSO vehicle control ([4]; primary screen, 10 μM): 60.2%; percent of DMSO vehicle control ([5]; primary screen, 10 μM): 101.4%; percent of DMSO vehicle control ([6]; primary screen, 10 μM): 49.5±2.8%; percent of DMSO vehicle control ([7]; primary screen, 10 μM): 47.8%; percent of DMSO vehicle control ([8]; primary screen, 10 μM): 27.7±0.9%
6 | NC(=O)CC[C@H](NC(=O)[C@@H]1CC[C@@H]2CCN(C(=O)CCCCCC#Cc3cccc4c3CN(C3CCC(=O)NC3=O)C4=O)C[C@H](NC(=O)c3cc4cc(C(F)(F)P(=O)(O)O)ccc4[nH]3)C(=O)N21)C(=O)NC(c1ccccc1)c1ccccc1 (stereo partly shown) [SD-36] | – | – | – | – | – | – | – | – | – | 100 ± 4.5 | 95.7 ± 9.9 | 104 | 100 ± 5.2 | 76.9 ± 3.5 | 117 ± 1.5 | 70.6 ± 5.9 | – | 57.8 ± 6.8 | – | –
7 | CC(C)(C)[C@H](NC(=O)/C=C/c1ccc(OP(=O)(O)O)cc1)C(=O)N1CCC[C@H]1C(=O)N(c1ccccc1)c1ccc(I)cc1 [STAT6-IN-3] | 90.2 ± 12 | 92.1 ± 16.6 | 145 ± 22.5 | 89.5 ± 4.6 | 4.1 ± 47.5 | 87.5 ± 11.3 | 67.6 ± 11 | 1020 ± 260 | 26.9 ± 10.2 | – | – | – | – | – | – | – | – | – | No Hit | –
8 | CC(=O)N[C@@H](Cc1ccc(CP(=O)(O)O)cc1)C(=O)NC1(C(=O)N[C@@H](CC(N)=O)C(=O)NCCCc2c(O)ccc3ccccc23)CCCCC1 [CGP78850] | – | – | – | – | – | – | – | – | – | 108 ± 7.4 | 91.4 ± 15.3 | 117 ± 7.1 | 77.1 ± 2.6 | 117 ± 12.5 | 50.4 ± 7.8 | 42.1 ± 4.6 | 48 | 0 | – | –
9 | CC(=O)N1CC[C@H]2CC[C@@H](C(=O)N[C@@H](CCC(N)=O)C(=O)NC(c3ccccc3)c3ccccc3)N2C(=O)[C@@H](NC(=O)c2cc3cc(C(F)(F)P(=O)(O)O)ccc3[nH]2)C1 [SI-109] | – | – | – | – | – | – | – | – | – | 136 | 121 | 117 | 78.9 ± 3 | 124 | 119 | 105 | – | 137 | – | –
